The results in this text go back to patent US20090131513A1, “ANTI-INFLAMMATORY MODALITIES” (Novogen Research Pty Ltd., priority 2005, published 2009).

Assay [1] concerns UV irradiation-induced skin oedema. In words: Murine model of UV irradiation-induced skin oedema. The class given is in vivo, mice (Skh:hr-1 albino). The settings on record: for Increase in skin thickness (mean ± SD, ×0.01 mm): topical 0.2 ml of 20 μM at 30 min, 2 h, 4 h. The source says: Groups of 4-5 female Skh:hr-1 albino mice were irradiated with 1×3 MEdD (minimal edematous dose) of solar simulated UV radiation (SSUV). Solar-simulated ultraviolet radiation (SSUV) was provided by a planar bank of 6 UVA tube (Hitachi 40 W F40 T 10/BL, black light) and one UVB tube (Philips TL 40 W/12 RS) with radiation filtered through a sheet of 0.125 mm cellulose acetate (Eastman Chemical Products, Kingport, Term, USA) to give 2.96×10-4 W/cm2 UVA and 1.59×10-5 W/cm2 UVB. During irradiation, the cages were rotated below the lights to reduce the variation in radiation intensity in different positions.
Either test compound (0.2 ml of a 20 μM solution) or vehicle (propylene glycol/ethanol/water 1:2:1) was applied to the irradiated dorsal skin at 30 min, 2 h and 4 h post-irradiation. Dorsal skin fold measurements were made with a spring micrometer prior to and at 24 hr and 48 h post-UV exposure. The difference in skin thickness pre- and post-exposure to UVR was calculated for each mouse, and the differences examined between test compound and vehicle control were analysed using an unpaired two-tailed t test.

Assay [2] relates to AA-induced ear inflammation. In words: Murine ear inflammation induced by arachidonic acid. The class given is in vivo, mice (BALB/c). The settings on record: for Increase in ear thickness (mean ± SD, ×0.01 mm): 25 mg/kg i/p, 1 hr post-AA application; for AA-induced ear inflammation / ear thickness compared with vehicle, in words: mouse, in vivo. The text has this:
Compounds were examined for their ability to inhibit ear swelling in mice induced by the topical application of arachidonic acid (AA). The inflammatory response due AA, the immediate precursor of the eicosanoids, is due to formation of AA metabolites via both the cyclooxygenase (COX) and lipoxygenase (LOX) pathways (Young et al. 1984). AA induces an increase in both PGE2 and LTC4 synthesis which precedes the increase in ear thickness (Opas et al. 1985; Chang et al. 1986).
Female BALB/c mice (ARC, WA, Australia), weighing 15-21 g were injected with Compound 2 delivered in polyethylene glycol (PEG) 400:phosphate buffered saline (PBS) 1:1 intraperitoneally (i/p) at a dose of 25 mg/kg either 30 min prior to or immediately before the application of AA to the ears. Mice were anaesthetized using isoflurane and baseline thickness of both ears was measured using a spring micrometer. Each mouse received a total of 20 μL of AA in ethanol (50 mg/ml) applied to the inner and outer surfaces of each pinna (i.e. 0.5 mg AA per ear). Mice were anaesthetized again to remeasure the ears at 1 hr post-AA application.
The difference in ear swelling pre- and post-application of AA for each ear was calculated, and the average for the two ears of each mouse calculated. The difference in mean swelling of each test group compared to the group given vehicle alone was calculated using a two-tailed unpaired t test (Prism 4, GraphPad Software).

Assay [3] has as its system NO synthesis in mouse macrophage cell line RAW 264.7. Briefly: Inhibition of nitric oxide synthesis (Griess reaction). The class given is cell-based. The settings on record: 10 μM. On the procedure: Exposure of various cells (e.g. macrophages and smooth muscle cells) to bacterial LPS and proinflammatory cytokines induces iNOS which generates NO. NO production can be indirectly quantified by measurement of nitrite (NO2—), a stable breakdown product of NO. The mouse macrophage cell line RAW 264.7 was cultured in DMEM supplemented with FCS, 2 mM glutamine and 50 U/ml penicillin/streptomycin. Cells were treated with either test compound at 10 μM (in 0.125% DMSO) or vehicle alone, together with 10 ng/ml LPS. After incubation for 24 hrs, culture media was collected and analysed immediately for NO concentration using the Griess reaction (Eigler et al. 1995).
In general terms: Nitrite, measured by Griess reagent, commonly stands in for NO production.

The test system of assay [4] is DSS-induced colitis. In words: Murine model of DSS-induced colitis. The class given is in vivo, mice (BALB/c). As to conditions: for ulceration of the posterior colon (mice affected): vehicle 3/8; for mean clinical score versus vehicle: Experiment 3, 11 (p=0.0252); for colonic inflammation, in words: series of experiments, 1.0-1.25 mg/kg single oral dose per day. On the procedure:
Female BALB/c mice, 6-7 weeks old, were housed for a minimum of one week before any experimental work began. To induce colitis, dextran sulphate sodium (DSS—molecular weight 40 kD, TdB Consultancy AB, Uppsala, Sweden (Dieleman et al. 1994), was administered fresh daily in the drinking water at a concentration of 4.5-5% for 5 days (Okayasu et al. 1990), after which water alone was given. This regime induced mild colitis, evidenced by diarrhea and rectal bleeding, the severity of which was scored, as well as a reduction in the length of the colon. Histologically, colonic inflammation was evidenced by ulceration and an infiltration of neutrophils into the mucosa, which was also scored. The systemic effect of the colitis causes weight loss, which was also monitored.
Either vehicle (PEG 400:PBS1:1) Compounds 1 or 4 were administered at a dose rate of 1 mg/kg throughout the experiment until the mice were killed at day 17.
Either Compounds 1 and 2, at a dose of 1 mg/kg or vehicle were administered for 10 days prior to DSS being added to the drinking water to induce colitis, after which test compound was stopped. DSS was administered for 5 days and the mice killed 8 days later (day 23).
Either the cis or the trans isomers of Compound 3 (Compound 3a and 3b respectively) at 1.25 mg/kg or vehicle were administered throughout the experiment until the mice were killed at day 17.

Assay [5] deals with inflammed rat air pouches (serum-treated zymozan). Briefly: Rat air pouch assay. As to conditions: At 1 mM application. The class given is in vivo, rats (Dark Agouti).
Assay [6] shares this test system. In words: Rat air pouch assay. As to conditions: 0.5 ml of 100 μM into pouch; for Leucocytes in lavage fluid (×10^−7): lavage at 4 h. The class given is in vivo, rats (Dark Agouti). On the procedure:
An alternative assay used to measure anti-inflammatory efficacy is the air pouch model which involves the repeated subcutaneous injection of air into the dorsum of rats followed 24 h later by the intrapouch injection of an inflammatory stimulus (Gilroy et al. 1998).
Air pouches were raised on the dorsum of female Dark Agouti rats, approximately 7 weeks of age. To promote the formation of a cellular membrane lining the inside of each pouch, the pouches were maintained by re-inflating on days 2 and 5 after the initial injection of air. On re-inflation, the pouch was first deflated to ensure the needle was positioned correctly, before being re-inflated with 2 mL of sterile air. Using this protocol, the pouches remained inflated until use on day 7, when they were injected with 0.5 ml of either test compound at 100 μM or vehicle control. After 15 min, air pouches were injected with serum-treated zymozan (STZ-500 μg). Lavage of the air pouch (4×2 ml lavages) was performed at 4 h and leucocytes counted, after which the rats were killed, the air pouch excised and processed in formalin for histology. The sections were blinded to the person counting. Using a graticule with 100 squares and the 40× objective, the number of polymorphs were counted in the pouch lining at 10 different and non-adjacent sites. Group sizes were 5-6 rats. Data were analysed for statistical significance within each experiment and using an unpaired t test.

For assay [7], the target named is T1, TX synthase (TXS) (Homo sapiens, UniProt P24557).
T1 construct: endogenous in cells; host or cells: undifferentiated U937 cells
T1 sequence (P24557 1-533): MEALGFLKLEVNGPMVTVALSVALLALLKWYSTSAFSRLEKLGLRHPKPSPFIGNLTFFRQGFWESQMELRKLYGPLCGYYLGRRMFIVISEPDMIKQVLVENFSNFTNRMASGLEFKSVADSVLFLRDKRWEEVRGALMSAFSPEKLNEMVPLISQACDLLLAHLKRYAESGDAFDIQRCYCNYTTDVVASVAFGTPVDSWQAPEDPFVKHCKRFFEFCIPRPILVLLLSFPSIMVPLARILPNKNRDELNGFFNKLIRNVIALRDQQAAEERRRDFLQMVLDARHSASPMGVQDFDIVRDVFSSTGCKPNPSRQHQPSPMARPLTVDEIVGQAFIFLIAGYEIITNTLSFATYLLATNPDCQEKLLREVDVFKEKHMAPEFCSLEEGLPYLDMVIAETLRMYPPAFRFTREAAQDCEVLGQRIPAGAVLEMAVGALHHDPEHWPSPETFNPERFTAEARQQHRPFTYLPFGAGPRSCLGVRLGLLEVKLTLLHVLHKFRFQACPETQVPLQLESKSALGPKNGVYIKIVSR
In words: TXB2 synthesis following addition of exogenous PGH2 to U937 cells. The class given is cell-based. The settings on record: 1, 10, 100 μM, undifferentiated U937 cells, PGH2 5 μM. On the procedure: To examine effects of test compounds directly on TX synthase (TXS), a different assay system was used. Whereas arachidonic acid (AA) is the substrate for COX, PGH2 is the substrate for TX synthase. To examine directly the effect of these compounds on TXS, exogenous ? elow:
Test compounds at 0 μM, 1 μM, 10 μM and 100 μM (in DMSO) were incubated with undifferentiated U937 cells (6×10^6/ml) for 30 min at 37° C., after which PGH2 (5 μM) was added. After incubation for 10 min, the reaction was terminated by centrifugation and the supernatants were collected and TXB2 production was measured in triplicate by RIA. ANOVA followed by Newman-Keuls multiple comparisons test was used to examine differences between doses and the control values. A statistical significance level of 0.05 was used and differences from control values are indicated by an asterisk (*).

The test system of assay [8] is NFκB promoter activity. Briefly: Inhibition of NFκB promoter activity (β-lactamase reporter) in TNFα-stimulated THP-1 cells. The class given is cell-based, human. As to conditions: 5 h. The procedure: Human macrophage THP-1 cells, modified to include the β-lactamase reporter gene, were seeded into wells of a 96-well plate (50×10^3 cells/well) in the presence of RPMI 1640 medium (70 μl). TNFα (7.5 ng/ml) and human sera (final concentration of 20%) were added to each well. Plates were incubated for 5 h at 37° C. to allow for NFkB-stimulated β-lactamase production. LiveBLAzer™ FRET B/G Substrate (CCF4-AM) was then added to assay for β-lactamase activity. Once CCFA-AM enters a cell, it is converted to negatively charged CCF4 by endogenous esterases. Excitation of this substrate at 409 nm leads to efficient FRET between the coumarin and fluorescein moieties, resulting in a green fluorescence detectable at 530 nm. The presence of β-lactamase leads to cleavage of CCF4 and results in a loss of FRET, resulting in a robust blue fluorescent signal detectable at 460 nm. Thus, activity of beta-lactamase (a marker of NFkB-promoter activity) is measured as a product to substrate ratio (blue/green fluorescence ratio: 460 nm/530 nm).

For `Cc1c(O)ccc2c1OCC(c1ccc(O)cc1)C2O` (single isomer, unassigned) [Compound 3a], the “Increase in skin thickness (mean ± SD, ×0.01 mm)” value in assay [1] (24 hrs post-irradiation) is reported as 32 ± 18 ×0.01 mm. The “Increase in skin thickness (mean ± SD, ×0.01 mm)” value in assay [1] (48 hrs post-irradiation) worked out at 69 ± 24 ×0.01 mm. For the same compound, in assay [1] (both time points (24 and 48 hrs), topical), the “UV-induced inflammation / skin oedema, in words” value is reported as “significantly inhibited skin oedema”. In assay [2], the “Increase in ear thickness (mean ± SD, ×0.01 mm)” value was found to be 6.7 ± 2.1 ×0.01 mm and the “AA-induced ear inflammation / ear thickness compared with vehicle, in words” value was “significant reduction in ear thickness”. For the same compound, in assay [3], the “NO synthesis, direction of effect in words” value was “inhibited NO synthesis”. Moreover, in assay [4] (Experiment 3, 1.25 mg/kg), the “colon length versus vehicle” value is “significantly longer (p=0.039)”, the “day of switch from mean body weight loss to mean body weight gain” value was 4 days, the “degree of mucosal damage versus vehicle” value is listed as “significantly lower (p=0.018)” and the “ulceration of the posterior colon (mice affected)” value is given as “not observed”. Moreover, in assay [4] (Experiment 3, 1.25 mg/kg throughout until day 17), the “colonic inflammation and its resolution, in words” value is “reduced colonic inflammation and hastened its resolution”. Further, the “maximum mean weight loss” value in assay [4] (Experiment 3, 1.25 mg/kg, vehicle nearly 5%) is “less than 2%”. The “mean clinical score versus vehicle” value in assay [4] (days 8 (p=0.0078), 9 (p=0.0326), 10 (p=0.0386), 15 (p=0.0033), 16 (p=0.0016)) was “significantly lower”. Also, the “colonic inflammation, in words” value in assay [4] is listed as “reduced colonic inflammation”. Further, the “number of polymorphs in the tissue sections, in words” value in assay [5] is “suppressed the number of polymorphs”. Moreover, the “Polymorphs in tissue sections (per 100 squares)” value in assay [6] (4 h) is recorded as 17.9 ± 14.2 per 100 squares. Also, the “Leucocytes in lavage fluid (×10^−7)” value in assay [6] is 0.47 ± 0.4 ×10^−7.
As to `Cc1c(O)ccc2c1OCC(c1ccc(O)cc1)C2O` (single isomer, unassigned) [Compound 3b], the “Increase in skin thickness (mean ± SD, ×0.01 mm)” value in assay [1] (24 hrs post-irradiation) is listed as 56 ± 14 ×0.01 mm; in assay [1] (48 hrs post-irradiation) it was 113 ± 25 ×0.01 mm. Besides, the “Increase in ear thickness (mean ± SD, ×0.01 mm)” value in assay [2] stood at 7.1 ± 3.0 ×0.01 mm. Moreover, in assay [2], the “AA-induced ear inflammation / ear thickness compared with vehicle, in words” value is given as “significant reduction in ear thickness”. Also, the “NO synthesis, direction of effect in words” value in assay [3] was “inhibited NO synthesis”. Also, in assay [4] (Experiment 3, 1.25 mg/kg), the “ulceration of the posterior colon (mice affected)” value was 1/8. The “mean clinical score versus vehicle” value in assay [4] (days 8 (p=0.0055), 9 (p=0.0057), 17 (p=0.0177)) is “significantly lower”. Also, in assay [4], the “colonic inflammation, in words” value is “reduced colonic inflammation”. Further, the “Leucocytes in lavage fluid (×10^−7)” value in assay [6] is 0.66 ± 0.23 ×10^−7.
Regarding `Cc1cc(O)cc2c1C(=O)C(c1ccc(O)cc1)CO2` (stereo not shown) [Compound 5], the “thromboxane synthase inhibition (TXB2 synthesis after exogenous PGH2), selectivity in words” value in assay [7] is recorded as “selective thromboxane synthase inhibitors”. Further, the “inhibition of NFκB compared to vehicle control” value in assay [8] was “significantly (p<0.001) inhibited”.
